Measured values reported in patent US12692269B2, “Therapeutic compounds” (Genentech, Inc., priority 2019, dated 2026).

Tests used:
Format in all cases: binding
[1] = target: TEAD1 TAZ (amino acids 13-57) (Homo sapiens, UniProt P28347); assay: TEAD1-TAZ HTRF (TR-FRET) protein-protein interaction assay; settings: for TEAD1 TAZ HTRF combined: Max % Inhibition: TEAD1, TAZ peptide; for EC50: TEAD1-TAZ HTRF, TR-FRET 665 nm/615 nm, read-out: TEAD1 TAZ HTRF combined: EC50
Protocol: (§1) Purified His-tagged TEAD protein (YAP Binding Domain, amino acids 217-447) is pre-incubated with Europium labelled anti-His antibody tracer (Perkin Elmer Cat #AD0110). Small molecule Inhibitors are then incubated with the TEAD-Eu protein complex for 30 minutes to allow for binding to TEAD protein. Biotinylated YAP peptide for TEAD-YAP assays (AA's 50-100) or biotinylated TAZ peptide for TEAD-TAZ assays (AA's 13-57) that has been pre-incubated with streptavidin-xl665 acceptor (CIS-Bio Cat #610SAXAC) or is added to the compound-TEAD mix. The TEAD-YAP-inhibitor mixture is then incubated for 60 minutes at room temperature. All reactions are carried out in a polystyrene plate. After 60 minutes, the plate is read on a plate reader using TR-FRET mode with wavelengths of 665 nm/615 nm. If YAP or TAZ binds to TEAD as expected, a TR-FRET signal results from the proximity of YAP or TAZ and TEAD after binding. If an inhibitor such as peptide 17 (Selleckchem Cat #58164) interferes with YAP-TEAD or TAZ-TEAD binding, the disruption of the YAP or TAZ:TEAD interaction results in a decrease in TR-FRET signal. The potency of compounds as YAP:TEAD or TAZ:TEAD protein-protein interaction (PPi) inhibitors is determined by an IC50 or EC50 value generated using a non-linear four parameter curve fit.

[2] = target: TEAD3 TAZ (amino acids 13-57) (Homo sapiens, UniProt Q99594); assay: TEAD3-TAZ HTRF (TR-FRET) protein-protein interaction assay; settings: for TEAD3 TAZ HTRF combined: Max % Inhibition: TEAD3, TAZ peptide; for EC50: TEAD3-TAZ HTRF, TR-FRET 665 nm/615 nm, read-out: TEAD3 TAZ HTRF combined: EC50
TEAD3 TAZ (amino acids 13-57), sequence (Q99594 173-435 limits assumed): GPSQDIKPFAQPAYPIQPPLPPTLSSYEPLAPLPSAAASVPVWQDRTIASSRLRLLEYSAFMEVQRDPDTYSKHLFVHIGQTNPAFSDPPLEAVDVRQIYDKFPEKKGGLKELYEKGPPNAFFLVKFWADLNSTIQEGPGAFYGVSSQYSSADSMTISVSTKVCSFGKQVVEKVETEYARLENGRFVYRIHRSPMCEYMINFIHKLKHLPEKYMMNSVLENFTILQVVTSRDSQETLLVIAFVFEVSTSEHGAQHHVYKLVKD
Protocol: as §1

[3] = target: TEAD2 TAZ (amino acids 13-57) (Homo sapiens, UniProt Q15562); assay: TEAD2-TAZ HTRF (TR-FRET) protein-protein interaction assay; settings: for TEAD2 TAZ HTRF combined: Max % Inhibition: TEAD2, TAZ peptide; for EC50: TEAD2-TAZ HTRF, TR-FRET 665 nm/615 nm, read-out: TEAD2 TAZ HTRF combined: EC50
TEAD2 TAZ (amino acids 13-57), sequence (Q15562 217-447): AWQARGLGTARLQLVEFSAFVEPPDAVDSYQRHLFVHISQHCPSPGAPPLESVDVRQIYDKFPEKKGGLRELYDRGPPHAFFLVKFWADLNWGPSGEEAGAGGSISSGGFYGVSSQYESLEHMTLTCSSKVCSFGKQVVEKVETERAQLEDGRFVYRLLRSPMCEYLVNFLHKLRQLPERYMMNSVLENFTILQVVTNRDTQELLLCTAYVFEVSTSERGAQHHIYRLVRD
Protocol: as §1

[4] = target: TEAD4 TAZ (amino acids 13-57) (Homo sapiens, UniProt Q15561); assay: TEAD4-TAZ HTRF (TR-FRET) protein-protein interaction assay; settings: for TEAD4 TAZ HTRF combined: Max % Inhibition: TEAD4, TAZ peptide; for EC50: TEAD4-TAZ HTRF, TR-FRET 665 nm/615 nm, read-out: TEAD4 TAZ HTRF combined: EC50
TEAD4 TAZ (amino acids 13-57), sequence (Q15561 217-434 limits assumed): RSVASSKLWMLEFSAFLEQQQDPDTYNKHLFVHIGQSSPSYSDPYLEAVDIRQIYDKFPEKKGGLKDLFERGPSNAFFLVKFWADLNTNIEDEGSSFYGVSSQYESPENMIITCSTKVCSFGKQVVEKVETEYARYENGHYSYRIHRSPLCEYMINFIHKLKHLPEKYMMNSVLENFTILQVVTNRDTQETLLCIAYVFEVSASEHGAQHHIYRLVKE
Protocol: as §1

TEAD2 YAP50-100 = TEAD2 YAP50-100 (Homo sapiens, UniProt Q15562); assay: TEAD2-YAP HTRF (TR-FRET) protein-protein interaction assay; settings: TEAD2, YAP peptide 50-100, HTRF; for EC50: read-out: TEAD2 YAP50-100 HTRF combined: EC50
TEAD2 YAP50-100, sequence (Q15562 217-447): as the sequence (Q15562 217-447) above
Protocol: as §1

TEAD1 YAP50-100 = TEAD1 YAP50-100 (Homo sapiens, UniProt P28347); assay: TEAD1-YAP HTRF (TR-FRET) protein-protein interaction assay; settings: TEAD1, YAP peptide 50-100, HTRF; for EC50: read-out: TEAD1 YAP50-100 HTRF combined: EC50
TEAD1 YAP50-100, sequence (P28347 167-426 limits assumed): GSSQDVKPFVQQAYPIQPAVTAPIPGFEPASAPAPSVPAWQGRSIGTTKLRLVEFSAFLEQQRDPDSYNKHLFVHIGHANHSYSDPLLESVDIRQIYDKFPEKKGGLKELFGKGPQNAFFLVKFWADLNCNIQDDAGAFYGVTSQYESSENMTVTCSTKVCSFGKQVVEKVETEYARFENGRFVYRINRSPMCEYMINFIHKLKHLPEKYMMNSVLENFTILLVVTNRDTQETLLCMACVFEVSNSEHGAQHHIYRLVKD
Protocol: as §1

TEAD4 YAP50-100 = TEAD4 YAP50-100 (Homo sapiens, UniProt Q15561); assay: TEAD4-YAP HTRF (TR-FRET) protein-protein interaction assay; settings: TEAD4, YAP peptide 50-100, HTRF; for EC50: read-out: TEAD4 YAP50-100 HTRF combined: EC50
TEAD4 YAP50-100, sequence (Q15561 217-434 limits assumed): as the sequence (Q15561 217-434 limits assumed) above
Protocol: as §1

TEAD3 YAP50-100 = TEAD3 YAP50-100 (Homo sapiens, UniProt Q99594); assay: TEAD3-YAP HTRF (TR-FRET) protein-protein interaction assay; settings: TEAD3, YAP peptide 50-100, HTRF; for EC50: read-out: TEAD3 YAP50-100 HTRF combined: EC50
TEAD3 YAP50-100, sequence (Q99594 173-435 limits assumed): as the sequence (Q99594 173-435 limits assumed) above
Protocol: as §1

TEAD1 TAZ (amino acids 13-57), sequence (P28347 167-426 limits assumed): as the sequence (P28347 167-426 limits assumed) above

SMILES | TEAD1 TAZ HTRF combined: Max % Inhibition [1] [%] | EC50 [1] [nM] | TEAD3 TAZ HTRF combined: Max % Inhibition [2] [%] | EC50 [2] [nM] | TEAD2 TAZ HTRF combined: Max % Inhibition [3] [%] | EC50 [3] [nM] | TEAD4 TAZ HTRF combined: Max % Inhibition [4] [%] | EC50 [4] [nM] | TEAD2 YAP50-100 HTRF combined: Max % Inhibition (TEAD2 YAP50-100) [%] | EC50 (TEAD2 YAP50-100) [nM] | TEAD1 YAP50-100 HTRF combined: Max % Inhibition (TEAD1 YAP50-100) [%] | EC50 (TEAD1 YAP50-100) [nM] | TEAD4 YAP50-100 HTRF combined: Max % Inhibition (TEAD4 YAP50-100) [%] | EC50 (TEAD4 YAP50-100) [nM] | TEAD3 YAP50-100 HTRF combined: Max % Inhibition (TEAD3 YAP50-100) [%] | EC50 (TEAD3 YAP50-100) [nM]
Cc1nccnc1-c1nn2c(=O)cc(-c3ccc(OC(c4ccccc4)C(F)(F)F)cc3)[nH]c2c1C(=O)N1C[C@H](CF)[C@@H]1C (single isomer, unassigned) [Final product obtained using Enantiomer B from Step 1, Example 56] | 60.5 | 360 | 68.0 | 940 | 77.0 | 70 | 53.0 | 2100 | 83.5 | 80 | 66.0 | 430 | 59.5 | 2850 | 71.0 | 830
Cc1nccnc1-c1nn2c(=O)cc(-c3ccc(C4CCCCC4)cc3)[nH]c2c1C(=O)N1C[C@@H](CF)[C@H]1C (single isomer, unassigned) [Isomer A, Example 41] | 53.5 | 180 | 70.0 | 690 | 35.0 | 50 | 51.5 | 4900 | 26.0 | 60 | 69.0 | 150 | 51.0 | 5500 | 74.0 | 530
Cc1nccnc1-c1nn2c(=O)cc(-c3ccc(CC4CCCC4)cc3)[nH]c2c1C(=O)N1C[C@@H](CF)[C@H]1C (single isomer, unassigned) [Isomer A, Example 42] | 49.0 | 80 | 66.0 | 340 | 57.0 | 20 | 20.0 | 1100 | 45.0 | 20 | 64.0 | 80 | 48.5 | 4850 | 69.5 | 320
C[C@H]1[C@@H](CF)CN1C(=O)c1c(-c2ncccn2)nn2c(=O)cc(-c3ccc(CC4CCCC4)cc3)[nH]c12 (single isomer, unassigned) [Isomer A, Example 43] | 54.5 | 30 | 52.0 | 60 | 63.0 | 10 | 52.0 | 10 | 71.0 | 10 | 64.0 | 30 | 52.0 | 10 | 58.5 | 60
C[C@H]1[C@@H](CF)CN1C(=O)c1c(-c2cnccn2)nn2c(=O)cc(-c3ccc(CC4CCCC4)cc3)[nH]c12 (single isomer, unassigned) [Isomer A, Example 44, Cis-5-(4-(cyclopentylmethyl)phenyl)-3-(3-(fluoromethyl)-2-methylazetidine-1-carbonyl)-2-(pyrazin-2-yl)pyrazolo[1,5-a]pyrimidin-7(4H)-one] | 52.0 | 70 | 64.0 | 1200 | 56.5 | 40 | 42.0 | 9500 | 52.0 | 40 | 64.0 | 60 | 40.0 | 9350 | 65.5 | 1050

Now from value to compound:

TEAD1 TAZ HTRF combined: Max % Inhibition [1] [%] | EC50 [1] [nM] | TEAD3 TAZ HTRF combined: Max % Inhibition [2] [%] | EC50 [2] [nM] | TEAD2 TAZ HTRF combined: Max % Inhibition [3] [%] | EC50 [3] [nM] | TEAD4 TAZ HTRF combined: Max % Inhibition [4] [%] | EC50 [4] [nM] | TEAD2 YAP50-100 HTRF combined: Max % Inhibition (TEAD2 YAP50-100) [%] | EC50 (TEAD2 YAP50-100) [nM] | TEAD1 YAP50-100 HTRF combined: Max % Inhibition (TEAD1 YAP50-100) [%] | EC50 (TEAD1 YAP50-100) [nM] | TEAD4 YAP50-100 HTRF combined: Max % Inhibition (TEAD4 YAP50-100) [%] | EC50 (TEAD4 YAP50-100) [nM] | TEAD3 YAP50-100 HTRF combined: Max % Inhibition (TEAD3 YAP50-100) [%] | EC50 (TEAD3 YAP50-100) [nM] | SMILES
41.5 | 240 | 73.0 | 260 | 71.0 | 40 | 44.5 | 480 | 65.0 | 40 | 59.0 | 130 | 47.5 | 550 | 71.5 | 250 | CC(CO)c1nn2c(=O)cc(-c3ccc(C4CCCCC4)cc3)[nH]c2c1C(=O)N1CC[C@@H](C#N)C1 (single isomer, unassigned) [Final product obtained using Enantiomer A from Step 4, Example 54]
69.5 | 70 | 69.5 | 130 | 77.0 | 10 | 58.0 | 60 | 76.0 | 10 | 76.0 | 60 | 51.5 | 60 | 71.0 | 120 | C[C@H]1[C@@H](CF)CN1C(=O)c1c(-c2cnccn2)nn2c(=O)cc(-c3ccc(C4CCCCC4)cc3)[nH]c12 (single isomer, unassigned) [Isomer A, Example 39]
64.5 | 80 | 63.0 | 160 | 70.5 | 10 | 53.0 | 30 | 76.0 | 10 | 75.0 | 60 | 53.5 | 30 | 68.5 | 140 | C[C@@H]1[C@H](CF)CN1C(=O)c1c(-c2ncccn2)nn2c(=O)cc(-c3ccc(C4CCCCC4)cc3)[nH]c12 (single isomer, unassigned) [Isomer A, Example 40]
55.0 | 170 | 68.0 | 2500 | 37.0 | 190 | 49.5 | 6200 | 17.5 | 170 | 62.0 | 170 | 46.0 | 6450 | 67.0 | 2450 | C[C@@H]1[C@H](CF)CN1C(=O)c1c(-c2cnccn2)nn2c(=O)cc(-c3ccc(C4CCCCC4)cc3)[nH]c12 (single isomer, unassigned) [Isomer B, Example 39]
